Data reported in paper PMC9959553, “Promising Antifungal Molecules against Mucormycosis Agents Identified from Pandemic Response Box®: In Vitro and In Silico Analyses” (Journal of Fungi, 2023).

The molecules below were run on R. oryzae UCP1295 (assay: Screening of the Pandemic Response Box library at 5 µM). Settings: 48 h, Table S1, mean of the four values.
Type: cell-based, Rhizopus oryzae
Experimental: Rhizopus oryzae UCP is the most prevalent Mucorales species in human infections and was used as a reference strain to screen the Pandemic Response Box® library. Screening was performed according to Rollin-Pinheiro and colleagues. Each compound was diluted in RPMI 1640 medium (Sigma Chemical Co., St. Louis, MO, USA), supplemented with 2% glucose and buffered with 3-(N-morpholino) propanesulfonic acid (MOPS) (Sigma Chemical Co., St. Louis, MO, USA) (0.165 mol/L, pH 7.2, from here on referred to as ‘supplemented RPMI’) to reach 5 μM in 96-well microtiter plates. Posaconazole (5 μM) and supplemented RPMI containing 1% DMSO were used as controls (both from Sigma Chemical Co., St. Louis, MO, USA). Conidia (2 × 10^5/mL) were added and incubated for 48 h at 37 °C in a 5% CO2 atmosphere. […] An inhibition of at least 60% was defined as the cut-off to select the promising drugs with antifungal activity against the Rhizopus species.

Structure (SMILES)	% of growth inhibition, Mean [%]
CCN(CC)CCCC(C)Nc1ccnc2cc(Cl)ccc12 (stereo not drawn) [MMV000008]	-3.5
COc1cc(Cc2cnc(N)nc2N)cc(OC)c1OC [MMV000028]	-4.5
COc1cc(C)c2c(Oc3cccc(C(F)(F)F)c3)c(OC)cc(NC(C)CCCN)c2n1.O=C(O)CCC(=O)O (stereo not drawn) [MMV000043]	-36.7
CCC[C@@H]1C[C@@H](C(=O)N[C@@H]([C@H]2O[C@H](SC)[C@H](O)[C@@H](O)[C@H]2O)[C@H](C)Cl)N(C)C1.Cl [MMV000051]	-29.6
CONC(=N)c1ccc(-c2ccc(-c3ccc(C(=N)NOC)cc3)o2)cc1 [MMV000059]	-38.5
CCN(CC)CCn1c(=N)n(CC(O)COc2ccc(Cl)cc2Cl)c2ccccc21 (stereo not drawn) [MMV000725]	-27.5
O=C(c1ccccc1)N1CCN(c2ccccc2NC(=O)C(Cl)(Cl)Cl)CC1 [MMV001014]	-10.6
Cc1c(OCC(F)(F)F)ccnc1C[S+]([O-])c1nc2ccccc2[nH]1 (stereo not drawn) [MMV001438]	-13.2
CCCCc1ccc(C(=O)O)nc1 [MMV001726]	-15.9
Nc1nc(O)c2ncn(COC(CO)CO)c2n1 [MMV001761]	-10.5
CC1=C(/C=C/C(C)=C/C=C/C(C)=C/C(=O)Nc2ccc(O)cc2)C(C)(C)CCC1 [MMV001793]	-8.1
Nc1nc2c(ncn2COCCO)c(=O)[nH]1 [MMV001961]	-10.2
Clc1ccc(Cn2c(CN3CCCC3)nc3ccccc32)cc1 [MMV002015]	-4.7
NNC(=O)c1ccncc1 [MMV002169]	-5.4
O=C(O)CCNC(=O)c1ccccc1 [MMV002224]	-6.2
Cc1onc(-c2ccccc2)c1-c1ccc(S(N)(=O)=O)cc1 [MMV002260]	-15.5
Cc1ncc([N+](=O)[O-])n1CC(C)O (stereo not drawn) [MMV002287]	-34.1
OC(Cn1cncn1)(Cn1cncn1)c1ccc(F)cc1F [MMV002337]	-36.5
CCn1cc(C(=O)O)c(=O)c2cc(F)c(N3CCNC(C)C3)c(F)c21.Cl (stereo not drawn) [MMV002350]	-4.3
C[C@@H]1O[C@@H]1P(=O)(O)O [MMV002354]	-22.5

Structure (SMILES)	% of growth inhibition, Mean [%]
NC[C@H]1O[C@H](O[C@H]2[C@H](O)[C@@H](O[C@H]3O[C@H](CO)[C@@H](O)[C@H](N)[C@H]3O)[C@H](N)C[C@@H]2N)[C@H](N)C[C@@H]1O [MMV002459]	-14.1
CSc1ccc2c(c1)C(N1CCN(C)CC1)Cc1ccccc1S2 (stereo not drawn) [MMV002505]	8.0
CC[C@@H]1C(=O)OC[C@@H]1Cc1cncn1C.Cl [MMV002516]	-16.1
CO/N=C(\C(=O)N[C@@H]1C(=O)N2C(C(=O)OCOC(=O)C(C)(C)C)=C(/C=C\c3scnc3C)CS[C@H]12)c1csc(N)n1 [MMV002560]	-6.4
COC(=O)Nc1nc2ccc([S+]([O-])c3ccccc3)cc2[nH]1 (stereo not drawn) [MMV002565]	-39.5
O=C1CCC(N2C(=O)c3ccccc3C2=O)C(=O)N1 (stereo not drawn) [MMV002612]	-21.8
NCc1ccc(S(N)(=O)=O)cc1 [MMV002665]	-2.2
C[N+]1(C)CCCC(OC(=O)C(O)(c2ccccc2)c2ccccc2)C1 (stereo not drawn) [MMV002676]	-16.3
Cc1cc(C2CCCCC2)n(O)c(=O)c1 [MMV002731]	-13.0
Cc1onc(-c2ccccc2Cl)c1C(=O)N[C@@H]1C(=O)N2[C@@H]1SC(C)(C)[C@@H]2C(=O)O [MMV002740]	-27.0
COc1ccc2c(c1OC)C(=O)OC2C1c2c(cc3c(c2OC)OCO3)CCN1C (stereo not drawn) [MMV002780]	-7.9
C[C@H]1CC[C@]2(NC1)O[C@H]1C[C@H]3[C@@H]4CC[C@H]5C[C@@H](O)CC[C@]5(C)[C@H]4CC[C@]3(C)[C@H]1[C@@H]2C.Cl [MMV003069]	-12.1
CC[C@H]1OC(=O)[C@H](C)[C@@H](O[C@H]2C[C@@](C)(OC)[C@@H](O)[C@H](C)O2)[C@H](C)[C@@H](O[C@@H]2O[C@H](C)C[C@H](N(C)C)[C@H]2O)[C@](C)(O)C[C@@H](C)C(=O)[C@H](C)[C@@H](O)[C@]1(C)O [MMV003137]	-11.8
COC(=O)Nc1nc2cc(Sc3ccccc3)ccc2[nH]1 [MMV003143]	-14.1
NC(=O)c1cnccn1 [MMV003249]	-5.2
Cc1oncc1C(=O)Nc1ccc(C(F)(F)F)cc1 [MMV003291]	4.9
CC#C[C@]1(O)CC[C@H]2[C@@H]3CCC4=CC(=O)CCC4=C3[C@@H](c3ccc(N(C)C)cc3)C[C@@]21C [MMV003297]	-3.7
COc1ccc(C2CNC(=O)C2)cc1OC1CCCC1 (stereo not drawn) [MMV003738]	-1.4
CC[C@H](CO)Nc1nc(NCc2ccccc2)c2ncn(C(C)C)c2n1 [MMV003820]	-13.4
Nc1nc(=O)[nH]cc1F [MMV004508]	-32.5

Structure (SMILES)	% of growth inhibition, Mean [%]
Cc1ccc(NC(=O)c2ccc(CN3CCN(C)CC3)cc2)cc1Nc1nccc(-c2cccnc2)n1 [MMV009948]	-3.0
Cc1[nH]c2ccccc2c1CCNCc1ccc(/C=C/C(=O)NO)cc1 [MMV010036]	1.8
COc1ccc2nc(-c3ccccc3)cc(O)c2c1 [MMV011565]	-42.1
O=C(O)c1cc(-c2ccccc2)nc2ccccc12 [MMV018362]	-11.4
CN1CCN(c2ccc3[nH]c(-c4ccc5[nH]c(-c6ccc(O)cc6)nc5c4)nc3c2)CC1 [MMV020752]	-8.9
Nc1nc(N)c2c(Sc3ccccc3)cccc2n1 [MMV021759]	-3.3
Cc1nc(Nc2ccc(F)cc2)nc(N2CCc3ccccc3C2C)c1C (stereo not drawn) [MMV030787]	-5.0
Nc1nnc(-c2ccc(Cl)cc2)s1 [MMV046261]	-8.7
NC(=O)c1c(N)sc2c1CCCCC2 [MMV056052]	-8.7
CC1CN(c2ncnc3c2c(-c2ccccc2)cn3-c2ccc(F)cc2)CC(C)O1 (stereo not drawn) [MMV093250]	-16.0
COc1cc(NS(=O)(=O)c2ccc(C)cc2)c2ncccc2c1 [MMV098836]	48.1
Nc1c(C(=O)NCc2ccco2)c2nc3ccccc3nc2n1CCN1CCCCC1 [MMV099714]	-2.7
COc1cc2c(O)c3c(c(-c4ccc5c(c4)OCO5)c2cc1OC)C(=O)OC3 [MMV102270]	-33.2
O=C(Nc1nnc(-c2ccc(Cl)cc2)o1)c1nc2ccccc2s1 [MMV102833]	1.7
CC(C)Nc1ncnc2c1cnn2-c1ccc(Cl)cc1 [MMV108465]	-32.3
CCOc1ccc(C(=O)NCCc2ccccc2)cc1 [MMV124656]	-37.8
Clc1cccc(-c2nnc(-c3ccccc3)o2)c1 [MMV141011]	-16.6
NC1C2CC3CC(C2)CC1C3 (stereo not drawn) [MMV180402]	3.0
O=C(CC1Sc2ncnn2C1=O)Nc1ccc(Br)cc1 (stereo not drawn) [MMV214956]	-17.9
O=C(O)CSc1cc(NS(=O)(=O)c2cccc3cccnc23)c2ccccc2c1O [MMV218827]	-3.2
